The values below come from PMC9052077 (Computational and Structural Biotechnology Journal, 2022).

Entries after “also recorded” stand apart in the source; their conditions may differ. Where two headings read alike, the source gives them in different places.

In the assay the test system is HK-2 cells. Kind of assay: cells. It is filed as cell-based, human. As to conditions: for IC50 value for HK-2 cells: 24 h.
[1] abbreviates: Homo sapiens, HK-2, 24 h, HK-2 cells, 24 h exposure, SRB assay, Table 1.
Where [2] appears, read: Homo sapiens, HK-2, read-out: Activity IC50 (μM), HK-2 cells, Table 4.
The mark [3] stands for this setting: Homo sapiens, HK-2, read-out: Activity pIC50, HK-2 cells (converted), Table 4.
[4] abbreviates: Homo sapiens, HK-2, read-out: Bioactivity (μM), HK-2 cells, Table 3.

As for `C/C=C(/C)C(=O)O[C@H]1C(C)=C2[C@H]([C@@H]1OC(=O)CCCCCCC)[C@@](C)(OC(C)=O)C[C@H](OC(=O)CCC)[C@@]1(O)[C@H]2OC(=O)[C@@]1(C)O` [Compound 1, Thapsigargin], the IC50 under setting [1] was 0.18 µM, the IC50 under setting [2] came to 0.18 µM, the IC50 under setting [3] is 0.182 µM and the IC50 under setting [4] turned out to be 0.18 µM.

For `C[C@@H]1Cc2c(Cl)cc(C(=O)N[C@@H](Cc3ccccc3)C(=O)O)c(O)c2C(=O)O1` [Compound 3, Ochratoxin A], the “IC50 value for HK-2 cells” value (HK-2 cells, SRB assay) was “micromolar of tens digit”. Besides, the IC50 was 46.1 µM under setting [1], 46.1 µM under setting [2], 45.7 µM under setting [3] and 46.1 µM under setting [4].

With `C[C@@H](NCCCc1cccc(C(F)(F)F)c1)c1cccc2ccccc12` [Compound 8, Cinacalcet], the “IC50 value for HK-2 cells” value (HK-2 cells, SRB assay) is listed as “micromolar of tens digit”. The IC50 under setting [1] was 17.1 µM, the IC50 under setting [2] was found to be 17.1 µM, the IC50 under setting [3] is 17 µM and the IC50 under setting [4] came to 17.1 µM.

In the case of `C=CC[C@@H]1/C=C(\C)C[C@H](C)C[C@H](OC)[C@H]2O[C@@](O)(C(=O)C(=O)N3CCCC[C@H]3C(=O)O[C@H](/C(C)=C/[C@@H]3CC[C@@H](O)[C@H](OC)C3)[C@H](C)[C@@H](O)CC1=O)[C@H](C)C[C@@H]2OC` [Compound 9, Tacrolimus], the “IC50 value for HK-2 cells” value (HK-2 cells, SRB assay) is “micromolar of tens digit”. For the same compound, the IC50 is 49.4 µM under setting [1], 49.4 µM under setting [2], 49 µM under setting [3] and 49.4 µM under setting [4].

Turning to `CO[C@@]12[C@H](COC(N)=O)C3=C(C(=O)C(C)=C(N)C3=O)N1C[C@@H]1N[C@@H]12` [Compound 10, Mitomycin C], the “IC50 value for HK-2 cells” value (HK-2 cells, SRB assay) is “unit digits; also recorded: micromolar of tens digit”. The IC50 is, setting by setting: under setting [1], 5.04 µM; under setting [2], 5.04 µM; under setting [3], 5.01 µM; under setting [4], 5.04 µM.

With `COc1ccnc(C[S+]([O-])c2nc3ccc(OC(F)F)cc3[nH]2)c1OC` (stereo not drawn) [Compound 11, Pantoprazole], the IC50 under setting [1] came to 300 µM, the IC50 under setting [2] amounted to 300 µM, the IC50 under setting [3] is 302 µM and the IC50 under setting [4] came to 300 µM.

`N.N.[Cl][Pt][Cl]` [Compound 12, Cisplatin]: where the note is “HK-2 cells, SRB assay”, the “IC50 value for HK-2 cells” value is reported as “micromolar of tens digit”. Further, the IC50 runs as follows: (HK-2 cells, 24 h exposure, SRB assay, Table 1) 25.4 µM; (read-out: Activity IC50, HK-2 cells, Table 4) 25.4 µM; (read-out: Bioactivity, HK-2 cells, Table 3) 25.4 µM. Further, the “Activity pIC50” value (HK-2 cells, Table 4) stood at 4.59. Also, where the note is “HK-2 cells, converted from IC50 by eq 2, Table 3”, the “Actual value (pIC50)” value is recorded as 4.59.

On to `C[C@@H]1[C@H](O)[C@@H](C)/C=C/C=C/C=C/C=C/C=C/C=C/C=C/[C@H](O[C@@H]2O[C@H](C)[C@@H](O)[C@H](N)[C@@H]2O)C[C@@H]2O[C@](O)(C[C@@H](O)C[C@@H](O)[C@H](O)CC[C@@H](O)C[C@@H](O)CC(=O)O[C@H]1C)C[C@H](O)[C@H]2C(=O)O` [Compound 13, Amphotericin B], for which, under “HK-2 cells, SRB assay”, the “IC50 value for HK-2 cells” value is “unit digits”. Besides, the IC50 runs as follows: under setting [1], 3.7 µM; under setting [2], 3.7 µM; under setting [3], 3.72 µM; under setting [4], 3.7 µM.
